In general, IC50 refers to the concentration that inhibits the measured activity by half.

The target of one assay is T1, JAK3 protein (Homo sapiens, UniProt P52333).
T1 construct: purchased Carna Biosciences
T1 sequence (P52333 1-1124): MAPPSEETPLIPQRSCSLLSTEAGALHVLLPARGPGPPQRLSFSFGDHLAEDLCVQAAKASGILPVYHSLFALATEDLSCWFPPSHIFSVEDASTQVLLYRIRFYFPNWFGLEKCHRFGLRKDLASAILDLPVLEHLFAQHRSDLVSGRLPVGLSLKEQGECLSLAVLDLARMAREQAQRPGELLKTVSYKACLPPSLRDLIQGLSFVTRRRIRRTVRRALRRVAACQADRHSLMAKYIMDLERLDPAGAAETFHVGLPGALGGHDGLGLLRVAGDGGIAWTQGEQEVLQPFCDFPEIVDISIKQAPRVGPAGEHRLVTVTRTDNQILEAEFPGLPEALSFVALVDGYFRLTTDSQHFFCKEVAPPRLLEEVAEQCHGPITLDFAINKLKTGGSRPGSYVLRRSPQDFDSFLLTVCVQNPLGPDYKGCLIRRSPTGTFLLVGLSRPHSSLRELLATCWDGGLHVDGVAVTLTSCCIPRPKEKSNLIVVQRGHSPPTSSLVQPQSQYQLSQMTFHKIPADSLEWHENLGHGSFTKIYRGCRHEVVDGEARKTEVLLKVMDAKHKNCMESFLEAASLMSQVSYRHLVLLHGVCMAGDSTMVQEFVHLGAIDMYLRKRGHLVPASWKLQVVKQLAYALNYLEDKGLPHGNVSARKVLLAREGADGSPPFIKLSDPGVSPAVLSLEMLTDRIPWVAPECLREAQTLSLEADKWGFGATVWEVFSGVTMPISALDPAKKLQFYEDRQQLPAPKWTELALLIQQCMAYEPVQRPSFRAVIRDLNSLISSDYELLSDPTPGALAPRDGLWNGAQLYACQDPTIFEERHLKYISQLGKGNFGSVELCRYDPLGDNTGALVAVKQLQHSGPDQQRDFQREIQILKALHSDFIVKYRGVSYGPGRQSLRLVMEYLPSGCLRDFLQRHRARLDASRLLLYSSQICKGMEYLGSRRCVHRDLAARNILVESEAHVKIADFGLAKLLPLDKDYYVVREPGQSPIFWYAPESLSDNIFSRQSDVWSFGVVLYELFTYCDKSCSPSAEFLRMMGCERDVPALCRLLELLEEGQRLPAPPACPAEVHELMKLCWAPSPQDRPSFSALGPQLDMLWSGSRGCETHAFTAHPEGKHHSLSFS
Description: In vitro JAK3 kinase activity assay (HTRF kinEASE TK). It is filed as biochemical. As to conditions: 0.75 μM ATP, 25 minutes, room temperature; read-out: IC50 JAK3 (enzyme activity assay). Here is the method:
(§1) Recombinant human JAK1 protein was purchased from Thermo Fisher. JAK2 and JAK3 proteins were purchased from Carna Biosciences. HTRF kinEASE TK kit was purchased from Cisbio Bioassays. BioTek microplate reader Synergy Neo 2 was used to read the plate.
(§2) The test compounds were of 4-fold serial dilution, and the final concentration ranged from 10 μM to 0.04 nM in duplicates for each concentration. The concentration of DMSO in the reaction system was 1%.
The reaction included […] JAK 3 protein kinase, 1 μM TK Substrate-biotin peptide substrate, 0.75 μM ATP, 1× enzymatic buffer, 5 mM MgCl2, and 1 mM DTT. The detection plate was White Proxiplate 384-Plus plate (PerkinElmer), and the mixture (10 μl) was reacted at room temperature for 25 minutes.
(§3) Reaction detection: 10 μl of detection reagent was added to the reaction plate containing final concentration of 0.125 μM of SA-XL665 and 5 μl 1×TK-Antibody. The mixture was incubated overnight at room temperature. The plate was read using Synergy Neo 2.
(§4) Data analysis: 665/620 Ratio was converted into inhibition rate (%) through the following formula: inhibition rate (%)=(Ratiomax−Ratiotest)/(Ratiomax−Ratiomin)×100%. Ratiomax is a positive control without detection compound, Ratiomin is a negative control without detection compound and kinase, Ratiotest is the detection value of each concentration of different compounds. 4 parameter curve fitting was performed to measure the IC50 (nM) values. The details are shown in, Table 1.

In assay [1] the target is T2, JAK1 (Homo sapiens, UniProt P23458). Description: In vitro JAK1 kinase activity assay (HTRF kinEASE TK). As to conditions: 1.1 μM ATP, 60 minutes, room temperature; read-out: IC50 JAK1 (enzyme activity assay). More on the design: purchased Thermo Fisher. It is filed as biochemical. The method, then:
as §1, §2
The reaction included 0.5 ng/μl JAK 1 protein kinase, 1 μM TK Substrate-biotin peptide substrate, 1.1 μM ATP, 1× enzymatic buffer, 5 mM MgCl2, 1 mM MnCl2, 1 mM DTT, and 2.5 nM SEB. The detection plate was White Proxiplate 384-Plus plate (PerkinElmer), and the mixture (10 μl) was reacted at room temperature for 60 minutes.
as §3, §4
A general note: In TR-FRET formats the signal depends on donor and acceptor labels being close together.

In assay [2] the target is T3, JAK2 (Homo sapiens, UniProt O60674). Description: In vitro JAK2 kinase activity assay (HTRF kinEASE TK). It is filed as biochemical. More on the design: purchased Carna Biosciences. As to conditions: 2.7 μM ATP, 25 minutes, room temperature; read-out: IC50 JAK2 (enzyme activity assay). The method, then: as §1, §2
T3 sequence (O60674 whole entry): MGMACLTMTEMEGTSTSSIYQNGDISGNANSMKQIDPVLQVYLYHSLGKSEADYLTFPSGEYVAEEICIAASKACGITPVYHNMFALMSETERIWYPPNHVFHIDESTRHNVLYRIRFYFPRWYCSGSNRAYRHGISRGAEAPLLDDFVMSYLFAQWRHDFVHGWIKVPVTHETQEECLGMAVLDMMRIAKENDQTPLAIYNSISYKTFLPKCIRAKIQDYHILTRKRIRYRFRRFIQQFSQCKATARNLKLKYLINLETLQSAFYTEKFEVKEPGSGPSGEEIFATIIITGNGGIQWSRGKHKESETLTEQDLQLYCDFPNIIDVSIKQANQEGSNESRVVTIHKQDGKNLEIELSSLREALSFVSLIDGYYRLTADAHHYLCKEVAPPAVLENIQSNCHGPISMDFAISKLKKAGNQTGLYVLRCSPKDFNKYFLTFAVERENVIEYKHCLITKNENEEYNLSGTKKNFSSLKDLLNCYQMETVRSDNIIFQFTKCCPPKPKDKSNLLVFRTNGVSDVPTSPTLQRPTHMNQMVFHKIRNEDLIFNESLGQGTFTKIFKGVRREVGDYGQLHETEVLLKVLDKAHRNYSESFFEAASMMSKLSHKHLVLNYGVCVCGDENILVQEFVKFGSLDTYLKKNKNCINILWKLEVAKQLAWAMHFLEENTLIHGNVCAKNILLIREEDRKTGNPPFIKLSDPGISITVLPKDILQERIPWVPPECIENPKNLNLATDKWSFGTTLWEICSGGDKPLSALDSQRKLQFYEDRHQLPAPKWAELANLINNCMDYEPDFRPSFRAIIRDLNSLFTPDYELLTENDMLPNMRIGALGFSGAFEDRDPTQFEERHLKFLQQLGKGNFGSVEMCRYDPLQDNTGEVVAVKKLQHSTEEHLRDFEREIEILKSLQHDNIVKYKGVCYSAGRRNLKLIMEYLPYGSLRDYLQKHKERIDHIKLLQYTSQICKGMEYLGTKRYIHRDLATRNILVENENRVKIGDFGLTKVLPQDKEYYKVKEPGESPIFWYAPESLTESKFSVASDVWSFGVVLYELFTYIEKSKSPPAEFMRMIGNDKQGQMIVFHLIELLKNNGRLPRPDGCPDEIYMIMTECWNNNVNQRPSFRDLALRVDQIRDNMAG
The reaction included 0.001 ng/μl JAK 2 protein kinase, 1 μM TK Substrate-biotin peptide substrate, 2.7 μM ATP, 1× enzymatic buffer, 5 mM MgCl2, and 1 mM DTT. The detection plate was White Proxiplate 384-Plus plate (PerkinElmer), and the mixture (10 μl) was reacted at room temperature for 25 minutes.
as §3, §4

Assay [3] deals with T2, JAK1. Description: Cellular JAK1 activity assay: IL-6-stimulated STAT3 phosphorylation in TF-1 cells. Type of assay: cell-based. Further details: endogenous in cells; host or cells: TF-1 cells (ATCC). Conditions: IL-6 (30 ng/mL), pSTAT3, read-out: IC50 Cell JAK1. The method, then: (§5) In TF-1 cells, IL-6 stimulation leads to phosphorylation of STAT3 through JAK1, while EPO stimulants phosphorylation of STAT5 via JAK2.
(§6) TF-1 cells were obtained from American Type Culture Collection (ATCC). TF-1 cells were starved overnight (cell density was 100,000 cells/well at plating) in OptiMEM medium without phenol red containing 0.5% fetal bovine serum (FBS), 0.1 mM non-essential amino acids (NEAA), 1 mM sodium pyruvate at 37° C. The compound was serially diluted in DMSO, added to TF-1 cells and incubated at 37° C. for 20 minutes. The final concentration of DMSO was 0.2%. Then, human recombinant cytokine IL-6 (30 ng/mL) or EPO (10 U/mL) was added to the wells containing TF-1 cells. After the cell plate was incubated for 30 minutes, cells were lysed, and the phosphorylation of STAT3 (IL-6) or STAT5 (EPO) in the cell lysate (pSTAT3/total STAT3 Elisa Kit: CST #7300C/CST #7305C; pSTAT5 and total STAT5 Elisa Kit: Abcam #ab205715) was measured. The IC50 value was determined as the concentration of the compound required to inhibit STAT phosphorylation by 50% relative to the measured DMSO control.

Assay [4] deals with T3, JAK2. Description: Cellular JAK2 activity assay: EPO-stimulated STAT5 phosphorylation in TF-1 cells. Type of assay: cell-based. Further details: endogenous in cells; host or cells: TF-1 cells (ATCC). As to conditions: EPO (10 U/mL), pSTAT5, read-out: IC50 Cell JAK2. Here is the method: as §5, §6

T2 sequence (P23458 whole entry): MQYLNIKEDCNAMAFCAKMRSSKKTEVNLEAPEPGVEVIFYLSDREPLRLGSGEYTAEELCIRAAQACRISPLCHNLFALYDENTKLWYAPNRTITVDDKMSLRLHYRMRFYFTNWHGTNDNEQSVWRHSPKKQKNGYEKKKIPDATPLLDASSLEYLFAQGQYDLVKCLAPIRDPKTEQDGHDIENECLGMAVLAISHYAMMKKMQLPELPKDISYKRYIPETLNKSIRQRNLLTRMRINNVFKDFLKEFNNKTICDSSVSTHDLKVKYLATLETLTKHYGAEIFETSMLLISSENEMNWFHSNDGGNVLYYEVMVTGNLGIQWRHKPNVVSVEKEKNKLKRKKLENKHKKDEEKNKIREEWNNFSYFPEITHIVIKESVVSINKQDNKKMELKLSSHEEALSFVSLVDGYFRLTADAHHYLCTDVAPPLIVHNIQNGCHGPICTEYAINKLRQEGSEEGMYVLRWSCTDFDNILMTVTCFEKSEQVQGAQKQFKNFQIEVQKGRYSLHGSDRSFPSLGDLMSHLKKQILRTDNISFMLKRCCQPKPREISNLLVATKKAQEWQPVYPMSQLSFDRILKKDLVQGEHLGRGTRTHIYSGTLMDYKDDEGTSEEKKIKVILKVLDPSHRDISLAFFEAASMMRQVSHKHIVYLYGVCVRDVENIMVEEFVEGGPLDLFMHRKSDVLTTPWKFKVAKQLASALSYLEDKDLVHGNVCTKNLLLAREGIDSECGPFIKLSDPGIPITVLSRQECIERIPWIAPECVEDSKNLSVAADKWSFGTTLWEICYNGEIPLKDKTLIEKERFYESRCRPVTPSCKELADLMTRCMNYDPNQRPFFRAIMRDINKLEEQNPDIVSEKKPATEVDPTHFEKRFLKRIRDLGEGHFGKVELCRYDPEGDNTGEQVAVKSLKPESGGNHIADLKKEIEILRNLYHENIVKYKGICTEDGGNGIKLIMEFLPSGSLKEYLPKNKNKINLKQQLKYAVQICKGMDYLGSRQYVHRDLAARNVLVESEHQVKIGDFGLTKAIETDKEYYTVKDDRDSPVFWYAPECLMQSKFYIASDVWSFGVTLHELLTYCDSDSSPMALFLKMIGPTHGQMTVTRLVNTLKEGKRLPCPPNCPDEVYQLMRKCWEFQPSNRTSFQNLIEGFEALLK

`CCC(C(=O)Nc1nccc2c(-c3nc(Nc4cccc(S(C)(=O)=O)c4F)ncc3C)c[nH]c12)N1CCN(C)CC1` (stereo in doubt) [Example 20, (S)—N-(3-(2-((2-Fluoro-3-(methylsulfonyl)phenyl)amino)-5-methylpyrimidin-4-yl)-1H-pyrrolo[2,3-c]pyridin-7-yl)-2-(4-methylpiperazin-1-yl)butanamide]: the IC50 on JAK3 protein is 500 to 10000 nM; at JAK1 [1], 5 to 50 nM; at JAK2 [2], 100 to 10000 nM.

`COc1nn(C)cc1Nc1nccc(-c2c[nH]c3c(NC(=O)[C@@H](C)N4CCN(C)CC4)nccc23)n1` [Example 1, (R)—N-(3-(2-((3-Methoxy-1-methyl-1H-pyrazol-4-yl)amino)pyrimidin-4-yl)-1H-pyrrolo[2,3-c]pyridin-7-yl)-2-(4-methylpiperazin-1-yl)propionamide]: the IC50 at JAK3 protein is 500 to 10000 nM; at JAK1 [1], above 50 nM; on JAK2 [2], 100 to 10000 nM.

For the compound `CCC(C(=O)Nc1nccc2c(-c3nc(Nc4cn(C)nc4OC)ncc3C)c[nH]c12)N1CCN(C)CC1` (stereo not shown) [Example 2, N-(3-(2-((3-Methoxy-1-methyl-1H-pyrazol-4-yl)amino)-5-methylpyrimidin-4-yl)-1H-pyrrolo[2,3-c]pyridin-7-yl)-2-(4-methylpiperazin-1-yl)butanamide], the IC50 is below 500 nM on JAK3 protein; 5 to 50 nM at JAK1 [1]; below 100 nM on JAK2 [2]; below 100 nM on JAK1 [3]; below 10000 nM on JAK2 [4].

Take `CC[C@@H](C(=O)Nc1nccc2c(-c3nc(Nc4cn(C)nc4OC)ncc3C)c[nH]c12)N1CCN(C)CC1` [Example 3, (S)—N-(3-(2-((3-Methoxy-1-methyl-1H-pyrazol-4-yl)amino)-5-methylpyrimidin-4-yl)-1H-pyrrolo[2,3-c]pyridin-7-yl)-2-(4-methylpiperazin-1-yl)butanamide]: the IC50 is below 500 nM on JAK3 protein; 5 to 50 nM at JAK1 [1]; below 100 nM at JAK2 [2]; below 100 nM at JAK1 [3]; below 10000 nM at JAK2 [4].

For `COc1nn(C)cc1Nc1ncc(C)c(-c2c[nH]c3c(Nc4cn(C)nc4OC)nccc23)n1` [Example 5, N-(3-Methoxy-1-methyl-1H-pyrazol-4-yl)-3-(2-((3-methoxy-1-methyl-1H-pyrazole-4-yl)amino)-5-methylpyrimidin-4-yl)-1H-pyrrolo[2,3-c]pyridin-7-amine], the half-inhibitory concentration (IC50) on JAK3 protein is below 500 nM; at JAK1 [1] it was 5 to 50 nM; at JAK2 [2], below 100 nM; at JAK1 [3], 100 to 1000 nM; on JAK2 [4] it was above 20000 nM.

For `COc1nn(C)cc1Nc1ncc(C)c(-c2c[nH]c3c(NC(=O)C(C(C)C)N4CCN(C)CC4)nccc23)n1` (stereo not shown) [Example 6], the IC50 is below 500 nM on JAK3 protein; 5 to 50 nM at JAK1 [1]; below 100 nM on JAK2 [2]; 100 to 1000 nM on JAK1 [3]; below 10000 nM at JAK2 [4].

Consider `COc1nn(C)cc1Nc1ncc(C)c(-c2c[nH]c3c(NC(=O)[C@@H](C)N4CCOCC4)nccc23)n1` [Example 7], for which the half-inhibitory concentration (IC50) on JAK3 protein was below 500 nM; on JAK1 [1], 5 to 50 nM; on JAK2 [2], below 100 nM; at JAK1 [3] it was 100 to 1000 nM; on JAK2 [4], 10000 to 20000 nM.

Consider `COc1nn(C)cc1Nc1ncc(C)c(-c2c[nH]c3c(NC(=O)C(C)(C)N4CCN(C)CC4)nccc23)n1` [Example 11], for which the IC50 lay within 500 to 10000 nM at JAK3 protein, 5 to 50 nM on JAK1 [1] and 100 to 10000 nM at JAK2 [2].

As to `CCC(C(=O)Nc1nccc2c(-c3nc(Nc4cn(C)nc4OC)ncc3F)c[nH]c12)N1CCN(C)CC1` (stereo not shown) [Example 17, N-(3-(5-Fluoro-2-((3-methoxy-1-methyl-1H-pyrazol-4-yl)amino)pyrimidin-4-yl)-1H-pyrrole[2,3-c]pyridin-7-yl)-2-(4-methylpiperazin-1-yl)butanamide], the IC50 on JAK3 protein was below 500 nM; on JAK1 [1], below 5 nM; at JAK2 [2], 100 to 10000 nM.

With `CCC(C(=O)Nc1nccc2c(-c3nc(Nc4cn(C)nc4OC)ncc3C)c[nH]c12)N1CCN(C2COC2)CC1` (stereo not shown) [Example 18, N-(3-(2-((3-Methoxy-1-methyl-1H-pyrazol-4-yl)amino)-5-methylpyrimidin-4-yl)-1H-pyrrolo[2,3-c]pyridin-7-yl)-2-(4-(oxbutan-3-yl)piperazin-1-yl)butanamide], the figures for the concentration for half-maximal inhibition (IC50) on JAK3 protein, on JAK1 [1] and on JAK2 [2] were below 500 nM, below 5 nM and 100 to 10000 nM, respectively.

`CC[C@@H](C(=O)Nc1nccc2c(-c3nc(Nc4cccc(S(C)(=O)=O)c4F)ncc3C)c[nH]c12)N1CC2CCC(C1)N2C` [Example 26, (S)—N-(3-(2-((2-Fluoro-3-(methylsulfonyl)phenyl)amino)-5-methylpyrimidin-4-yl)-1H-pyrrolo[2,3-c]pyridin-7-yl)-2-(8-methyl-3,8-diazabicyclo[3.2.1]octane-3-yl)butanamide]: the 50% inhibitory concentration (IC50) was 500 to 10000 nM on JAK3 protein, above 50 nM on JAK1 [1] and 100 to 10000 nM on JAK2 [2].

Turning to `CCC(C(=O)Nc1ncnc2c(-c3nc(Nc4cccc(S(C)(=O)=O)c4F)ncc3C)c[nH]c12)N1CCN(C)CC1` (stereo not shown) [Example 29, N-(7-(2-((2-Fluoro-3-(methylsulfonyl)phenyl)amino)-5-methylpyrimidin-4-yl)-5H-pyrrolo[3,2-d]pyrimidin-4-yl)-2-(4-methylpiperazin-1-yl)butanamide], the concentration for half-maximal inhibition (IC50) is 500 to 10000 nM on JAK3 protein, above 50 nM at JAK1 [1] and 100 to 10000 nM at JAK2 [2].

For the origin of these results see patent publication US12234232B2, “Aromatic heterocyclic compound with kinase inhibitory activity” (SHANGHAI ENNOVABIO PHARMACEUTICALS CO., LTD., priority 2018, dated 2025).
